Laboratory results published in patent US11981701B2, “PRMT5 inhibitors” (Merck Sharp & Dohme LLC, priority 2018, dated 2024).
Where a name gives a salt, the structure may show the parent alone. Read-outs that look alike come from different tables or passages of the source.

How the values were obtained:
[1] = molecular target: T1, Full-length (FL)-PRMT5-MEP50 enzyme complex (Homo sapiens, UniProt O14744); assay: PRMT5-MEP50 Enzyme Methylation Assay; type: biochemical; conditions: 1.0 nM PRMT5-MEP50, 75 nM biotinylated H4R3(Me1) peptide, 15 μM SAM, 60 min pre-incubation, 150 min at 37° C.
T1 construct: 1.25 nM of Full-length (FL)-PRMT5-MEP50 enzyme complex; made in house; host or cells: baculovirus-transfected Sf21 cells
T1 sequence (O14744 whole entry): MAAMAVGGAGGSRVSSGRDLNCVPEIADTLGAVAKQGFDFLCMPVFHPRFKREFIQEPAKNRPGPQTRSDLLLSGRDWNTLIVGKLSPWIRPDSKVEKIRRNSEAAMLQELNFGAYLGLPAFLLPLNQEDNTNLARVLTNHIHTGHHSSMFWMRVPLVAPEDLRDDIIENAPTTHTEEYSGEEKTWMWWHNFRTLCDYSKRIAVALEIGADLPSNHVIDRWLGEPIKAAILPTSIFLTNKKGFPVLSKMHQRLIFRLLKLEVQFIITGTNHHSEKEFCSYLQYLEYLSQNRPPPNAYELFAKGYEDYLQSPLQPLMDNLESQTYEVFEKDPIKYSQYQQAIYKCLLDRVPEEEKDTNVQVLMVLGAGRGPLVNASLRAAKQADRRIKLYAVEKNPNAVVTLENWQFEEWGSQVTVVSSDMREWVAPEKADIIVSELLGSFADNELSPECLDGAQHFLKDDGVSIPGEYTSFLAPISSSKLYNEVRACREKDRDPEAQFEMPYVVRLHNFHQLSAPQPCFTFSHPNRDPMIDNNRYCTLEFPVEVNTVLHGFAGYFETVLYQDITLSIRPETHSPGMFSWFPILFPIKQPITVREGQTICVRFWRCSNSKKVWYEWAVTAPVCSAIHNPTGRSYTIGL
T1 sequence (Q9BQA1 whole entry partner): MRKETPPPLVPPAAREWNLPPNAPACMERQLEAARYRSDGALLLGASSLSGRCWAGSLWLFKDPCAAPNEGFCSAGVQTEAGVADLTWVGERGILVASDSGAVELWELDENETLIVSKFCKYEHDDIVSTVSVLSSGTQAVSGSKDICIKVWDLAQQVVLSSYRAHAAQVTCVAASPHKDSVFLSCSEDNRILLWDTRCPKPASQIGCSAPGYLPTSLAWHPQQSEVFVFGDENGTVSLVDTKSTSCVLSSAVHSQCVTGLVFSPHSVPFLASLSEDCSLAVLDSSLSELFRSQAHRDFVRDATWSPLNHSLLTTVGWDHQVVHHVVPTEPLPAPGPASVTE
Description: PRMT5/MEP50 biochemical assay is a direct measurement of the methylation activity of the enzyme complex on a short peptide substrate derived from the N-terminus of H4 histone. Methylation experiment is performed with recombinant protein. The assessment of inhibitory effect (IC50) of small molecules is measured by the effectiveness of the compounds to inhibit this reaction.
In this assay, the potency (IC50) of each compound was determined from a twenty-point (1:2 serial dilution; top compound concentration of 100000 nM) titration curve using the following outlined procedure. To each well of a white ProxiPlus 384 well-plate, 100 nL of compound (1% DMSO in final assay volume of 10 μL) was dispensed, followed by the addition of 8 μL of 1× assay buffer (50 mM Bicine pH 8.0, 1 mM DTT, 0.004% Tween20, 0.01% BSA) containing 1.25 nM of Full-length (FL)-PRMT5-MEP50 enzyme complex (recombinant proteins from baculovirus-transfected Sf21 cells: FL-PRMT5; MW=[…] and FL-MEP50; MW=38614) and 1 μL of 150 μM S-(5′-Adenosyl)-L-Methionine Chloride (SAM). Plates were sealed and placed in a 37° C. humidified chamber for a 60 min pre-incubation with compound. Subsequently, each reaction was initiated by the addition of 1 μL 1× assay buffer containing 750 nM biotinylated H4R3(Me1) peptide. The final reaction in each well of 10 μL consists of 1.0 nM PRMT5-MEP50, 75 nM biotinylated-peptide, and 15 μM SAM. Methylation reactions were allowed to proceed for 150 min in a sealed plate at 37° C. Reactions were immediately quenched by the addition of 1 μL of 5% formic acid. Plates were then frozen and shipped to SAMDI™ Tech Inc. to determine the percent conversion from H4R3(Me1) to H4R3(Me2). IC50 values were determined by a 7 parameter biphasic fit model plotting the percent Effect (based on product conversion) vs. (Log10) compound concentrations.

[2] = molecular target: T2, PRMT5 (Homo sapiens, UniProt O14744); assay: PRMT5 Cell Target Engagement (TE) Assay; type: cell-based; conditions: MCF-7 cells, treated for 3 days, symmetrically dimethylated (SDMA) nuclear proteins by high content imaging; top concentration 10000 nM
T2 construct: seeded with 4000 MCF-7 cells; endogenous in cells; host or cells: MCF-7 cells
T2 sequence (O14744 whole entry): as the sequence (O14744 whole entry) above
T2 sequence (Q9BQA1 whole entry partner): as the sequence (Q9BQA1 whole entry partner) above
Source text: The PRMT5 TE assay is a biomarker assay for identifying compounds that inhibit symmetric dimethylation of arginine (SDMA) of PRMT5 substrates. The following substrates have been reported for PRMT5: histone H2A and H4 R3, Histone H3 R2, Histone H3 R8, spliceosome Sm proteins, ribosomal protein RPS10, p53, FEN1, nucleoplasmin, nucleolin, EGFR and EBNA. The assay will focus on detecting symmetrically dimethylated nuclear proteins using high content imaging technology. Detection of the expression of symmetrically dimethylated nuclear proteins is through a mixture of primary rabbit monoclonal antibodies to SDMA (CST 13222), which in turn recognized by an Alexafluor 488 dye-conjugated anti-rabbit IgG secondary antibody. The IN Cell Analyzer 2200 or Opera-Phenix measures nuclear Alexafluor 488 fluorescent dye intensity that is directly related to the level of expression of symmetrically dimethylated nuclear proteins at the single cell level. Nuclear AF488 dye intensities are compared to the mean value for DMSO treated cells (MIN) to report percent of inhibition for each compound-treated well. In this assay, the cell potency (EC50) of each compound was determined from a ten point (1:3 serial dilution; top compound concentration of 10000 nM) titration curve using the following outlined procedure. Each well of a BD falcon collagen coated black/clear bottom 384-well plate was seeded with 4000 MCF-7 cells in 30 μl media and allowed to attach for 5 h. Media is ATCC-formulated Eagle's Minimum Essential Medium, Catalog No. 30-2003. To make the complete growth medium, add the following components to the base medium: 0.01 mg/ml human recombinant insulin; fetal bovine serum to a final concentration of 10%. Additional 30 μl of media containing 2× compounds were added to each well. Cells were treated for 3 days in 37° C. CO2 incubator. On day 3, cells were fixed with Cytofix, permeabilized with 0.4% Triton-X-100/Cytofix, and washed with D-PBS without Ca/Mg. Cells were blocked with Licor Odessey blocking reagent for 1 h at room temperature, followed by incubation with anti-SDMA (1:1000) antibody at 4° C. overnight. 1° antibody was removed, followed by three washings with DPBS without Ca/Mg and 0.05% Tween20. Hoechst (5 μg/ml), Cell Mask deep stain (1:2000) and Alexa488-conjugated goat anti-rabbit IgG (2 μg/mL) was added for 1 hour at room temperature. A final washing step (three washes) was performed before sealing plate for imaging on In Cell Analyzer 2200 or Opera-Phenix. Images from analyzer were uploaded to Columbus (at WP or BOS) for image analysis. IC50 values were determined by 4 parameters robust fit of percent fluorescence units vs. (Log10) compound concentrations.

[3] = first value of 7 parameter biphasic fit, read-out: Enzyme Methylation Assay EC50_1
[4] = second value of 7 parameter biphasic fit, read-out: Enzyme Methylation Assay EC50_2

| Structure (SMILES) | EC50 [1, 3] [nM] | EC50 [1, 4] [nM] | EC50 [2] [nM] |
| --- | --- | --- | --- |
| Nc1nc2cc(OC[C@H]3O[C@@H](n4cnc(N)c5ncnc4-5)[C@H](O)[C@@H]3O)ccc2cc1Br [Example 1, 3-[5-O-(2-amino-3-bromo-7-quinolinyl)-b-D-ribofuranosyl]-3H-purin-6-amine] | 1.37 | 85.1 | 60.6 |
| Cc1ncn([C@@H]2C[C@H](CCc3ccc4cc(Br)c(N)nc4c3)[C@@H](O)[C@H]2O)c2ncnc1-2 [Example 9, (1S,2R,3S,5R)-3-[2-(2-amino-3-bromo-7-quinolinyl)ethyl]-5-(6-methyl-3H-purin-3-yl)-1,2-cyclopentanediol] | 0.282 |  | 1.05 |
| Cc1ccn([C@@H]2C[C@H](COc3ccc4cc(Br)c(N)nc4c3)[C@@H](O)[C@H]2O)c2ncnc1-2 [Example 13, (1S,2R,3R,5R)-3-(((2-amino-3-bromoquinolin-7-yl)oxy)methyl)-5-(7-methyl-4H-imidazo[4,5-b]pyridin-4-yl)cyclopentane-1,2-diol] | 0.404 |  | 61.5 |
| Cc1ccn([C@@H]2O[C@H](CCc3ccc4cc(Br)c(N)nc4c3)[C@@H](O)[C@H]2O)c2ncnc1-2 [Example 12, (2R,3S,4R,5R)-2-(2-(2-amino-3-bromoquinolin-7-yl)ethyl)-5-(7-methyl-4H-imidazo [4,5-b]pyridin-4-yl)tetrahydrofuran-3,4-diol] | 0.58 |  | 1.7 |
| Nc1ccn([C@@H]2C[C@H](CCc3ccc4cc(Br)c(N)nc4c3)[C@@H](O)[C@H]2O)c2ncnc1-2 [Example 4, (1S,2R,3S,5R)-3-[2-(2-amino-3-bromo-7-quinolinyl)ethyl]-5-(7-amino-4H-imidazo[4,5-b]pyridin-4-yl)-1,2-cyclopentanediol] | 0.489 |  | 2.54 |
| Cc1cc2ncnc-2n([C@@H]2C[C@H](CCc3ccc4cc(Br)c(N)nc4c3)[C@@H](O)[C@H]2O)c1 [Example 10, (1S,2R,3S,5R)-3-[2-(2-amino-3-bromo-7-quinolinyl)ethyl]-5-(6-methyl-4H-imidazo[4,5-b]pyridin-4-yl)-1,2-cyclopentanediol trifluoroacetate] | 1.62 |  | 116 |
| Nc1nc2cc(OC[C@H]3O[C@@H](n4nc5ncnc-5c(N)n4)[C@H](O)[C@@H]3O)ccc2cc1Br [Example 3, 2-[5-O-(2-amino-3-bromo-7-quinolinyl)-b-D-ribofuranosyl]-2H-imidazo[4,5-d][1,2,3]triazin-4-amine trifluoroacetate] | 1620 |  | > 10000 |
| Nc1ccn([C@@H]2O[C@H](COc3ccc4cc(Br)c(N)nc4c3)[C@@H](O)[C@H]2O)c2ncnc1-2 [Example 2, 4-[5-O-(2-amino-3-bromo-7-quinolinyl)-b-D-ribofuranosyl]-4H-imidazo[4,5-b]pyridin-7-amine] | 0.662 | 18.3 | 19.2 |
| Nc1nc2cc(CC[C@H]3C[C@@H](n4cnc(N)c5ncnc4-5)[C@H](O)[C@@H]3O)ccc2cc1Br [Example 6, (1S,2R,3S,5R)-3-[2-(2-amino-3-bromo-7-quinolinyl)ethyl]-5-(6-amino-3H-purin-3-yl)-1,2-cyclopentanediol hydrochloride] | 0.264 |  | 1.69 |
| Nc1ccn([C@@H]2C[C@H](CCc3ccc4ccc(NCC(F)F)nc4c3)[C@@H](O)[C@H]2O)c2ncnc1-2 [Example 7, (1R,2S,3R,5S)-3-(7-amino-4H-imidazo[4,5-b]pyridin-4-yl)-5-(2-{2-[(2,2-difluoroethyl)amino]-7-quinolinyl}ethyl)-1,2-cyclopentanediol] | 0.231 |  | 16.1 |
| Cc1ccn([C@@H]2C[C@H](CCc3ccc4cc(Br)c(N)nc4c3)[C@@H](O)[C@H]2O)c2ncnc1-2 [Example 5, (1S,2R,3S,5R)-3-[2-(2-amino-3-bromo-7-quinolinyl)ethyl]-5-(7-methyl-4H-imidazo[4,5-b]pyridin-4-yl)-1,2-cyclopentanediol] | 0.32 |  | 0.508 |
| Cc1ccn([C@@H]2C[C@H](CCc3ccc4ccc(NCC(F)F)nc4c3)[C@@H](O)[C@H]2O)c2ncnc1-2 [Example 8, (1S,2R,3S,5R)-3-(2-{2-[(2,2-difluoroethyl)amino]-7-quinolinyl}ethyl)-5-(7-methyl-4H-imidazo[4,5-b]pyridin-4-yl)-1,2-cyclopentanediol] | 0.253 |  | 1.94 |
| CCc1cc2ncnc-2n([C@@H]2C[C@H](CCc3ccc4cc(Br)c(N)nc4c3)[C@@H](O)[C@H]2O)c1 [Example 11, (1S,2R,3S,5R)-3-[2-(2-amino-3-bromo-7-quinolinyl)ethyl]-5-(6-ethyl-4H-imidazo[4,5-b]pyridin-4-yl)-1,2-cyclopentanediol trifluoroacetate] | 0.96 |  | 30.2 |
